{"source": "patent US9850227B2", "about": "(YUHAN CORPORATION, priority 2011, dated 2017)", "biological_target": "T1, human 5-HT4(a) (Homo sapiens, UniProt Q13639)", "T1 construct": "host or cells: GeneBIAzer HTR4-CRE-bla CHO-K1 cells", "T1 sequence (Q13639 1-387 isoform Q13639-2)": "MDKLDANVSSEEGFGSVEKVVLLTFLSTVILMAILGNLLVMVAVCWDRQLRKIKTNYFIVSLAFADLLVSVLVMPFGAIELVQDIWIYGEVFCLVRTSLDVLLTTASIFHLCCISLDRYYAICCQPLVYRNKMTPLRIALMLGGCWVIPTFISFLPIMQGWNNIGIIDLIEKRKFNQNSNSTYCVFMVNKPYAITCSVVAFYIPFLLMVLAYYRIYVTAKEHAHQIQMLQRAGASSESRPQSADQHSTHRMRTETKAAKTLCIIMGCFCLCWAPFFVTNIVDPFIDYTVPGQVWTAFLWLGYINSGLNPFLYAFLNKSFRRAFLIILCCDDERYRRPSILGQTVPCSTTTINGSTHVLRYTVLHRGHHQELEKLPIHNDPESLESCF", "assay": "Evaluation of agonistic activity in CHO-K1 cells expressing human 5-HT4(a) (GeneBIAzer HTR4-CRE-bla CHO-K1 cells, beta-lactamase fluorescence ratio, EC50 from 8 concentrations)", "assay_type": "cell-based", "procedure": "Evaluation of Agonistic Activity in CHO-K1 Cells Expressing Human 5-HT4(a)\nAs CHO-K1 cells stably expressing human 5-HT4(a), we used the GeneBIAzer HTR4-CRE-bla CHO-K1 cells (Invitrogen Corp.). The cells were cultured, under the condition of 37° C. and 5% CO2, in a DMEM supplemented with 10% fetal bovine serum (FBS), 25 mM HEPES (pH7.4), 600 μg/ml hygromycin B, 0.1 mM non-essential amino acids, 100 unit/ml penicillin and 100 μg/ml streptomycin. Subcultures were performed three times per one week, each being at less than 80% confluence. At the previous day before treating test compounds, the cells were collected using 0.5% trypsin/EDTA and then diluted with a DMEM supplemented with 1% FBS, 25 mM HEPES, and 0.1 mM non-essential amino acids into 3.125×10^5 cells/ml. 32 μl of the diluted cells were added into 384-well plate (10^4 cells per well) and then incubated overnight. After the overnight culture, 8 μl of the medium having 1% of DMSO was added into the cell-free control well and the non-stimulating control well, respectively. 8 μl of the respective test compound dilutions (which had been prepared by diluting by 100-times with the medium as mentioned in the above) having 1% of DMSO were added to the respective remaining wells. After being cultured in the incubator for 5 hours, the wells of the 384-plate were treated with the substrate solution (8 μl per well) prepared according to the vendor's instruction (i.e., Invitrogen's instruction), and then incubated in the dark room for additional two hours. Agonistic activities on 5-HT4 receptor were evaluated, on the basis of fluorescence values of the cleavage-products by beta-lactamase. After exciting to 410 nm of wavelength using a fluorescence detector (Genios Pro), we measured the fluorescence values at two emission wavelengths (first wavelength: 465 nm, second wavelength: 535 nm). Data were analyzed on the basis of the ratio of fluorescence intensities of each well at the respective wavelengths. Each EC50 value was calculated by non-linear regression analysis using the “GraphPad Prism” program, based on the activities according to 8-different concentrations of the test compounds.", "note": "Counter-ions that a name gives are not always drawn.", "data": [{"smiles": "CCCCc1cc(N2CCCCC2CCO)nc(Nc2ccc(F)cc2)n1", "note": "(centres unmarked) [Example 22, 2-{1-[6-butyl-2-(4-fluorophenylamino)pyrimidin-4-yl]piperidin-2-yl}ethanol]", "values": [{"measurement": "EC50", "value": 0.19, "unit": "nM"}]}, {"smiles": "CCCc1cc(N2CCCCC2CCO)nc(Nc2ccc(Cl)c([N+](=O)[O-])c2)n1", "note": "(centres unmarked) [Example 24, 2-{1-[2-(4-chloro-3-nitrophenylamino)-6-propylpyrimidin-4-yl]piperidin-2-yl}ethanol]", "values": [{"measurement": "EC50", "value": 0.026, "unit": "nM"}]}, {"smiles": "CCCc1cc(N2CCCCC2CCO)nc(Nc2cccc(SC)c2)n1", "note": "(centres unmarked) [Example 25, 2-(1-{2-[3-(methylthio)phenylamino]-6-propylpyrimidin-4-yl}piperidin-2-yl)ethanol]", "values": [{"measurement": "EC50", "value": 0.073, "unit": "nM"}]}, {"smiles": "CCCc1cc(N2CCCCC2)nc(Nc2ccc(F)c([N+](=O)[O-])c2)n1", "note": "[Example 40, N-(4-fluoro-3-nitrophenyl)-4-(piperidin-1-yl)-6-propylpyrimidin-2-amine]", "values": [{"measurement": "EC50", "value": 0.26, "unit": "nM"}]}, {"smiles": "CCCc1cc(N2CCCCC2)nc(Nc2ccc(Cl)c([N+](=O)[O-])c2)n1", "note": "[Example 45, N-(4-chloro-3-nitrophenyl)-4-(piperidin-1-yl)-6-propylpyrimidin-2-amine]", "values": [{"measurement": "EC50", "value": 0.27, "unit": "nM"}]}, {"smiles": "CCCc1cc(N2CCCCC2)nc(Nc2ccc(C)c([N+](=O)[O-])c2)n1", "note": "[Example 47, N-(4-methyl-3-nitrophenyl)-4-(piperidin-1-yl)-6-propylpyrimidin-2-amine]", "values": [{"measurement": "EC50", "value": 0.15, "unit": "nM"}]}, {"smiles": "CCCc1cc(N2CCCC3CCCCC32)nc(Nc2ccc3cc[nH]c3c2)n1", "note": "(centres unmarked) [Example 73, N-[4-(octahydroquinolin-1(2H)-yl)-6-propylpyrimidin-2-yl]-1H-indol-6-amine]", "values": [{"measurement": "EC50", "value": 0.24, "unit": "nM"}]}, {"smiles": "CCCc1cc(N2CCCCC2CCO)nc(Nc2ccc3cc[nH]c3c2)n1", "note": "(centres unmarked) [Example 74, 2-{1-[2-(1H-indol-6-ylamino)-6-propylpyrimidin-4-yl]piperidin-2-yl}ethanol]", "values": [{"measurement": "EC50", "value": 0.063, "unit": "nM"}]}, {"smiles": "CCCc1cc(N2CCCCC2)nc(Nc2ccc3cc[nH]c3c2)n1", "note": "[Example 76, N-[4-(piperidin-1-yl)-6-propylpyrimidin-2-yl]-1H-indol-6-amine]", "values": [{"measurement": "EC50", "value": 0.061, "unit": "nM"}]}, {"smiles": "CCCc1cc(N2CCOCC2)nc(Nc2ccc3cc[nH]c3c2)n1", "note": "[Example 77, N-(4-morpholino-6-propylpyrimidin-2-yl)-1H-indol-6-amine]", "values": [{"measurement": "EC50", "value": 0.084, "unit": "nM"}]}, {"smiles": "CCCc1cc(N2CCCCC2CC)nc(Nc2ccc3cc[nH]c3c2)n1", "note": "(centres unmarked) [Example 78, N-[4-(2-ethylpiperidin-1-yl)-6-propylpyrimidin-2-yl]-1H-indol-6-amine]", "values": [{"measurement": "EC50", "value": 0.12, "unit": "nM"}]}, {"smiles": "CCCc1cc(N2CCNC[C@H]2C)nc(Nc2cccc(C#N)c2)n1", "note": "[Example 82, (R)-3-[4-(2-methylpiperazin-1-yl)-6-propylpyrimidin-2-ylamino]benzonitrile dihydrochloride]", "values": [{"measurement": "EC50", "value": 0.096, "unit": "nM"}]}, {"smiles": "CCCc1cc(N2CCOCC2)nc(Nc2cccc([N+](=O)[O-])c2)n1", "note": "[Example 83, 4-morpholino-N-(3-nitrophenyl)-6-propylpyrimidin-2-amine hydrochloride]", "values": [{"measurement": "EC50", "value": 0.36, "unit": "nM"}]}, {"smiles": "CCCc1cc(N2CCOCC2)nc(Nc2ccc(F)c([N+](=O)[O-])c2)n1", "note": "[Example 84, N-(4-fluoro-3-nitrophenyl)-4-morpholino-6-propylpyrimidin-2-amine hydrochloride]", "values": [{"measurement": "EC50", "value": 0.27, "unit": "nM"}]}, {"smiles": "CCCc1cc(N2CCCCC2CC)nc(Nc2cccc([N+](=O)[O-])c2)n1", "note": "(centres unmarked) [Example 99, 4-(2-ethylpiperidin-1-yl)-N-(3-nitrophenyl)-6-propylpyrimidin-2-amine]", "values": [{"measurement": "EC50", "value": 0.37, "unit": "nM"}]}, {"smiles": "CCCc1cc(N2CCCCC2CC)nc(Nc2ccc(F)c([N+](=O)[O-])c2)n1", "note": "(centres unmarked) [Example 100, 4-(2-ethylpiperidin-1-yl)-N-(4-fluoro-3-nitrophenyl)-6-propylpyrimidin-2-amine]", "values": [{"measurement": "EC50", "value": 0.2, "unit": "nM"}]}, {"smiles": "CCCc1cc(N2CCCCC2CC)nc(Nc2ccc(Cl)c([N+](=O)[O-])c2)n1", "note": "(centres unmarked) [Example 101, N-(4-chloro-3-nitrophenyl)-4-(2-ethylpiperidin-1-yl)-6-propylpyrimidin-2-amine]", "values": [{"measurement": "EC50", "value": 0.24, "unit": "nM"}]}, {"smiles": "CCCc1cc(N2CCCCC2CC)nc(Nc2cccc(OC)c2)n1", "note": "(centres unmarked) [Example 102, 4-(2-ethylpiperidin-1-yl)-N-(3-methoxyphenyl)-6-propylpyrimidin-2-amine]", "values": [{"measurement": "EC50", "value": 0.47, "unit": "nM"}]}, {"smiles": "CCCc1cc(N2CCCCC2CC)nc(Nc2cccc(SC)c2)n1", "note": "(centres unmarked) [Example 104, 4-(2-ethylpiperidin-1-yl)-N-[3-(methylthio)phenyl]-6-propylpyrimidin-2-amine]", "values": [{"measurement": "EC50", "value": 0.36, "unit": "nM"}]}, {"smiles": "CCCc1cc(N2CCCCC2CC)nc(Nc2ccc3nc(C(F)(F)F)[nH]c3c2)n1", "note": "(centres unmarked) [Example 109, N-[4-(2-ethylpiperidin-1-yl)-6-propylpyrimidin-2-yl]-2-(trifluoromethyl)-1H-benzo[d]imidazol-6-amine]", "values": [{"measurement": "EC50", "value": 0.32, "unit": "nM"}]}, {"smiles": "CCCc1cc(N2CCCCC2CC)nc(Nc2cccc(C#N)c2)n1", "note": "(centres unmarked) [Example 111, 3-[4-(2-ethylpiperidin-1-yl)-6-propylpyrimidin-2-ylamino]benzonitrile]", "values": [{"measurement": "EC50", "value": 0.091, "unit": "nM"}]}, {"smiles": "CCCc1cc(N2CCCCC2CC)nc(Nc2cc(OC)ccc2C)n1", "note": "(centres unmarked) [Example 112, 4-(2-ethylpiperidin-1-yl)-N-(5-methoxy-2-methylphenyl)-6-propylpyrimidin-2-amine]", "values": [{"measurement": "EC50", "value": 0.37, "unit": "nM"}]}, {"smiles": "CCCc1cc(N2CCCCC2CC)nc(Nc2cnc3ccccc3c2)n1", "note": "(centres unmarked) [Example 114, N-[4-(2-ethylpiperidin-1-yl)-6-propylpyrimidin-2-yl]quinolin-3-amine]", "values": [{"measurement": "EC50", "value": 0.31, "unit": "nM"}]}, {"smiles": "CCCc1cc(N2CCNC[C@H]2C)nc(Nc2ccc(Cl)c([N+](=O)[O-])c2)n1", "note": "[Example 117, (R)-N-(4-chloro-3-nitrophenyl)-4-(2-methylpiperazin-1-yl)-6-propylpyrimidin-2-amine]", "values": [{"measurement": "EC50", "value": 0.077, "unit": "nM"}]}, {"smiles": "CCCc1cc(N2CCNC[C@H]2C)nc(Nc2ccc3cc[nH]c3c2)n1", "note": "[Example 118, (R)-N-[4-(2-methylpiperazin-1-yl)-6-propylpyrimidin-2-yl]-1H-indol-6-amine]", "values": [{"measurement": "EC50", "value": 0.024, "unit": "nM"}]}, {"smiles": "CCCc1cc(N2CCNC[C@H]2C)nc(Nc2cccc(C(F)(F)F)c2)n1", "note": "[Example 119]", "values": [{"measurement": "EC50", "value": 0.156, "unit": "nM"}]}, {"smiles": "CCCc1cc(N2CCNC[C@H]2C)nc(Nc2cccc([N+](=O)[O-])c2)n1", "note": "[Example 120]", "values": [{"measurement": "EC50", "value": 0.073, "unit": "nM"}]}, {"smiles": "CCCc1cc(N2CCNC[C@H]2C)nc(Nc2ccc(F)c([N+](=O)[O-])c2)n1", "note": "[Example 121, (R)-N-(4-fluoro-3-nitrophenyl)-4-(2-methylpiperazin-1-yl)-6-propylpyrimidin-2-amine]", "values": [{"measurement": "EC50", "value": 0.093, "unit": "nM"}]}, {"smiles": "CCCc1cc(N2CCNC[C@H]2C)nc(Nc2ccc(C)c([N+](=O)[O-])c2)n1", "note": "[Example 122, (R)-N-(4-methyl-3-nitrophenyl)-4-(2-methylpiperazin-1-yl)-6-propylpyrimidin-2-amine]", "values": [{"measurement": "EC50", "value": 0.011, "unit": "nM"}]}, {"smiles": "CCCc1cc(N2CCNC[C@H]2C)nc(Nc2ccc(F)c(N)c2)n1", "note": "[Example 123, (R)-4-fluoro-N^1-[4-(2-methylpiperazin-1-yl)-6-propylpyrimidin-2-yl]benzene-1,3-diamine]", "values": [{"measurement": "EC50", "value": 0.121, "unit": "nM"}]}, {"smiles": "CCCc1cc(N2CCNC[C@H]2C)nc(Nc2ccc(N)c(C(F)(F)F)c2)n1", "note": "[Example 124, (R)-N^1-[4-(2-methylpiperazin-1-yl)-6-propylpyrimidin-2-yl]-3-(trifluoromethyl)benzene-1,4-diamine]", "values": [{"measurement": "EC50", "value": 0.028, "unit": "nM"}]}, {"smiles": "CCCc1cc(N2CCNC[C@H]2C)nc(Nc2ccc(F)c(C#N)c2)n1", "note": "[Example 125, (R)-2-fluoro-5-[4-(2-methylpiperazin-1-yl)-6-propylpyrimidin-2-ylamino]benzonitrile]", "values": [{"measurement": "EC50", "value": 0.051, "unit": "nM"}]}, {"smiles": "CCCc1cc(N2CCNC[C@H]2C)nc(Nc2ccc(C)c(C#N)c2)n1", "note": "[Example 126, (R)-2-methyl-5-[4-(2-methylpiperazin-1-yl)-6-propylpyrimidin-2-ylamino]benzonitrile]", "values": [{"measurement": "EC50", "value": 0.013, "unit": "nM"}]}, {"smiles": "CCCc1cc(N2CCNC[C@H]2C)nc(Nc2ccc(N)c(C#N)c2)n1", "note": "[Example 127, (R)-2-amino-5-[4-(2-methylpiperazin-1-yl)-6-propylpyrimidin-2-ylamino]benzonitrile]", "values": [{"measurement": "EC50", "value": 0.053, "unit": "nM"}]}, {"smiles": "CCCc1cc(N2CCNC[C@H]2C)nc(Nc2ccc(N)c([N+](=O)[O-])c2)n1", "note": "[Example 128, (R)-N^1-[4-(2-methylpiperazin-1-yl)-6-propylpyrimidin-2-yl]-3-nitrobenzene-1,4-diamine]", "values": [{"measurement": "EC50", "value": 0.0049, "unit": "nM"}]}, {"smiles": "CCCc1cc(N2CCNC[C@H]2C)nc(Nc2cc(N)cc(C#N)c2)n1", "note": "[Example 129, (R)-3-amino-5-[4-(2-methylpiperazin-1-yl)-6-propylpyrimidin-2-ylamino]benzonitrile]", "values": [{"measurement": "EC50", "value": 0.0041, "unit": "nM"}]}, {"smiles": "CCCc1cc(N2CCCCC2CCO)nc(Nc2cccc(C#N)c2)n1", "note": "(centres unmarked) [Example 131, 3-{4-[2-(2-hydroxyethyl)piperidin-1-yl]-6-propylpyrimidin-2-ylamino}benzonitrile]", "values": [{"measurement": "EC50", "value": 0.12, "unit": "nM"}]}, {"smiles": "CCCc1cc(N2CCCCC2CCO)nc(Nc2ccc3nc(C(F)(F)F)[nH]c3c2)n1", "note": "(centres unmarked) [Example 136, 2-(1-{6-propyl-2-[2-(trifluoromethyl)-1H-benzo[d]imidazol-6-ylamino]pyrimidin-4-yl}piperidin-2-yl)ethanol]", "values": [{"measurement": "EC50", "value": 0.35, "unit": "nM"}]}]}
